Columns and labels:
GPR119 receptor [1] = test: Effect of oral GPR119 agonist on plasma GIP level in GPR119-deficient (knockout) mice compared to wild-type littermates; format: in vivo; conditions: 20 mg/kg per orally vs vehicle PET; blood at time 0 and 5 min after glucose bolus 3 g/kg; FIG. 2A
Protocol: (§1) A. GPR119-deficient male mice and wild-type littermates were fasted for 18 hours. Mice were administered per orally with vehicle (PET; 80% PEG400, 10% ethanol, 10% Tween80) or with a GPR119 agonist in accordance with the present invention (Compound 1Z; (2-Fluoro-4-methanesulfonyl-phenyl)-{6-[4-(3-isopropyl-[1,2,4]oxadiazol-5-yl)-piperidin-1-yl]-5-nitro-pyrimidin-4-yl}-amine) at 20 mg/kg, as indicated (n=5). Thirty minutes after treatment, blood (100 microliter) was collected via retro orbital vein of the eye (time 0) followed by a glucose bolus at 3 g/kg (per orally). Five minutes after delivering glucose, another blood sample (100 microliter) was collected (time 5 minutes). Plasma were collected after centrifugation and GIP levels were determined by using a rodent GIP ELISA kit purchased from Linco Research Laboratory [Rat/Mouse Gastric Inhibitory Polypeptide (Total) ELISA Catalog #EZRMGIP-55K], following instructions provided by the supplier. […]
(§2) B. GPR119-deficient male mice and wild-type littermates were fasted for 18 hours. […] Plasma were collected after centrifugation and GIP levels were determined by using a rodent GIP ELISA kit purchased from Linco Research Laboratory [Rat/Mouse Gastric Inhibitory Polypeptide (Total) ELISA Catalog #EZRMGIP-55K], following instructions provided by the supplier. […]

GPR119 receptor [2] = molecular target: T1, GPR119 receptor (Mus musculus, UniProt Q7TQP3); test: as above; format: in vivo; conditions: 20 mg/kg per orally; wild-type littermates; time 0 and 5 min after glucose bolus 3 g/kg; FIG. 2A
T1 construct: from tissue; host or cells: whole animal: wild-type male mice dosed orally, compared with GPR119-deficient littermates
T1 sequence (Q7TQP3 1-335): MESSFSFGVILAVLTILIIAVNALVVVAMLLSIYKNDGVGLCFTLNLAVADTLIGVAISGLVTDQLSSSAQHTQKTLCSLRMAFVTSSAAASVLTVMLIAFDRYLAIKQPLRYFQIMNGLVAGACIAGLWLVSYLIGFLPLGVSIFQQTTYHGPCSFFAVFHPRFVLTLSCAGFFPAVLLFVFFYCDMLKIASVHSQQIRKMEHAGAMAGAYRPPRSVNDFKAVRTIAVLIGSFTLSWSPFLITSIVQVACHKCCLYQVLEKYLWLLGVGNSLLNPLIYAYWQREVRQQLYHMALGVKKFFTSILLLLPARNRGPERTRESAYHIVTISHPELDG
Protocol: as §1, §2

blood GIP level = test: Effect of oral GPR119 agonist on plasma GIP level (rodent total GIP ELISA) in wild-type mice, with oral glucose bolus; format: in vivo, C57blk/6 male mice; conditions: 20 mg/kg per orally vs vehicle PET, FIG. 1A
Protocol: A. C57blk/6 male mice were fasted for 18 hours, and randomly assigned into fourteen groups with n=6 for each group. Mice were administered per orally with vehicle (PET; 80% PEG400, 10% ethanol, 10% Tween80) or with a GPR119 agonist in accordance with the present invention (Compound 1Z; (2-Fluoro-4-methanesulfonyl-phenyl)-{6-[4-(3-isopropyl-[1,2,4]oxadiazol-5-yl)-piperidin-1-yl]-5-nitro-pyrimidin-4-yl}-amine) at 20 mg/kg, as indicated in FIG. 1A. Thirty minutes after treatment, a glucose bolus at 3 g/kg were delivered per orally, and plasma were collected at 0 (no glucose bolus), 2, 5, 10, 20, 40 and 60 minutes after glucose bolus. Plasma GIP levels were determined by using a rodent GIP ELISA kit purchased from Linco Research Laboratory [Rat/Mouse Gastric Inhibitory Polypeptide (Total) ELISA Catalog #EZRMGIP-55K], following instructions provided by the supplier. […]
B. C57blk/6 male mice were fasted for 18 hours, and randomly assigned into fourteen groups with n=6 for each group. […] Plasma GIP levels were determined by using a rodent GIP ELISA kit purchased from Linco Research Laboratory [Rat/Mouse Gastric Inhibitory Polypeptide (Total) ELISA Catalog #EZRMGIP-55K], following instructions provided by the supplier. […] Mean values of GIP concentration were calculated based on results with six mice in each group and shown as mean±SEM. […]

Compound: CC(C)c1noc(C2CCN(c3ncnc(Nc4ccc(S(C)(=O)=O)cc4F)c3[N+](=O)[O-])CC2)n1 [Compound 1Z, (2-Fluoro-4-methanesulfonyl-phenyl)-{6-[4-(3-isopropyl-[1,2,4]oxadiazol-5-yl)-piperidin-1-yl]-5-nitro-pyrimidin-4-yl}-amine]
- glucose-independent and glucose-dependent level of GIP in the blood, GPR119-deficient vs wild-type mice (GPR119 receptor [1]): functional GPR119 receptor was necessary for the administered GPR119 agonist to increase a glucose-independent level and a glucose-dependent level of GIP
- plasma total GIP in wild-type mice (GPR119 receptor [2]): stimulated plasma total GIP in the wild-type mice
- level of GIP in the blood of the mice (glucose-dependent and glucose-independent) (blood GIP level; glucose bolus 3 g/kg 30 min after treatment, plasma at 0 (no glucose bolus), 2, 5, 10, 20, 40, 60 min): increased both a glucose-dependent and a glucose-independent level of GIP
- plasma total GIP (blood GIP level; glucose bolus 3 g/kg, time course 0-60 min): stimulated plasma total GIP

Source: US8101626B2, “GPR119 receptor agonists in methods of increasing bone mass and of treating osteoporosis and other conditions characterized by low bone mass, and combination therapy relating thereto” (Arena Pharmaceuticals, Inc., priority 2006, dated 2012)
